Positions of bridges follow the written chain, without caps; N, C: chain ends. Non-standard residues stand in square brackets, D forms with d. Residues, ends and D or L forms follow the SMILES beside them. *: point of attachment. hPhe(3-Cl-4-CF3) = N[C@@H](CCc1ccc(C(F)(F)F)c(Cl)c1)C(=O)O; NMePhe(4-CF3) = CN[C@@H](Cc1ccc(C(F)(F)F)cc1)C(=O)O; NMePhe(4-Me) = CN[C@@H](Cc1ccc(C)cc1)C(=O)O; NMePhe(4-F) = CN[C@@H](Cc1ccc(F)cc1)C(=O)O; NMeGly(cPent) = CN[C@H](C(=O)O)C1CCCC1; NMe3Pal = CN[C@@H](Cc1cccnc1)C(=O)O; NMeCha = CN[C@@H](CC1CCCCC1)C(=O)O; NMeAhp(2) = CCCCC[C@H](NC)C(=O)O; NMeChg = CN[C@H](C(=O)O)C1CCCCC1; NMeF = CN[C@@H](Cc1ccccc1)C(=O)O; NMeI = CC[C@H](C)[C@H](NC)C(=O)O; NMeD = CN[C@@H](CC(=O)O)C(=O)O; dNMeD = CN[C@H](CC(=O)O)C(=O)O; NMeL = CN[C@@H](CC(C)C)C(=O)O; Ahp(2) = CCCCC[C@H](N)C(=O)O; Cba = N[C@@H](CC1CCC1)C(=O)O; NMeV = CN[C@H](C(=O)O)C(C)C; d(β3hA) = C[C@@H](N)CC(=O)O; NMeAbu = CC[C@H](NC)C(=O)O; Morpholide = C1CN(*)CCO1; NMeA = CN[C@@H](C)C(=O)O; Nle = CCCC[C@H](N)C(=O)O; Piperidide = C1CCN(*)CC1; Pyrrolidide = C1CCN(*)C1; dNMeA = CN[C@H](C)C(=O)O; Ac5c = NC1(C(=O)O)CCCC1; Aze = O=C(O)[C@@H]1CCN1; Sar = CNCC(=O)O; Propyl = CCC*
Target: T1, Kras and SOS1 (biotin-tagged human Kras loaded with GDP, His-tagged human SOS1) (Homo sapiens, UniProt P01116, G12D)
T1 construct: made in house; host or cells: E. coli (stated for Kras only)
Test: Protein-protein interaction inhibition between Kras and SOS1 (KrasGl2D-SOS PPI) using AlphaScreen
Type: binding
Conditions: AlphaScreen; biotin-tagged human Kras loaded with GDP, His-tagged human SOS1; read-out: KRAS G12D-SOS PPI IC50
Method in brief: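 Energy transfer from nickel-chelate donor beads bound to His-SOS1 to streptavidin acceptor beads bound to biotin-Kras, expressed in E. coli and loaded with GDP after purification, was monitored. Donors were excited at 680 nm; singlet oxygen reaching acceptors gave emission read at 520-620 nm.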

T1 sequence (P01116 1-188 isoform P01116-2 G12D): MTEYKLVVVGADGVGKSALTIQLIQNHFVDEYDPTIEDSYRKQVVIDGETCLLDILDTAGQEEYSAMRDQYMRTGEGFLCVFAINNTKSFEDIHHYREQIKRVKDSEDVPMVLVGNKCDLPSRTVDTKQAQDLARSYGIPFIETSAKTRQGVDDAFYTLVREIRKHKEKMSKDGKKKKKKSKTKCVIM

Compound	IC50 [nM]
CCCCC[C@@H]1NC(=O)[C@H](CC(C)C)N(C)C(=O)C[C@@H](C(=O)N2CCCCC2)N(C)C(=O)[C@H](C2CCCCC2)N(C)C(=O)C2(CCCC2)NC(=O)[C@@H]2CCCN2C(=O)[C@H](CCc2ccc(C(F)(F)F)c(Cl)c2)NC(=O)CN(C)C(=O)[C@H](CC2CCCCC2)N(C)C(=O)CN(C)C(=O)CN(C)C1=O [Compound 1692] ([NMeL][Ahp(2)][Sar][Sar][NMeCha][Sar][hPhe(3-Cl-4-CF3)]P[Ac5c][NMeChg][NMeD]-Piperidide; lactam N-11)	3.5
CC[C@H](C)[C@@H]1NC(=O)[C@H](C)N(C)C(=O)C[C@@H](C(=O)N2CCCCC2)N(C)C(=O)[C@H](C(C)C)N(C)C(=O)C2(CCCC2)NC(=O)[C@@H]2CCCN2C(=O)[C@H](CCc2ccc(C(F)(F)F)c(Cl)c2)NC(=O)CN(C)C(=O)[C@H](Cc2ccc(F)cc2)N(C)C(=O)[C@@H]2CCCN2C(=O)CN(C)C1=O [Compound 1698] ([NMeA]I[Sar]P[NMePhe(4-F)][Sar][hPhe(3-Cl-4-CF3)]P[Ac5c][NMeV][NMeD]-Piperidide; lactam N-11)	1.2
CC[C@H](C)[C@@H]1NC(=O)[C@H](C)N(C)C(=O)C[C@@H](C(=O)N2CCOCC2)N(C)C(=O)[C@H](C2CCCCC2)N(C)C(=O)C2(CCCC2)NC(=O)[C@H](Cc2cccnc2)N(C)C(=O)[C@H](CCc2ccc(C(F)(F)F)c(Cl)c2)NC(=O)CN(C)C(=O)[C@H](CC2CCCCC2)N(C)C(=O)[C@@H]2CCN2C(=O)CN(C)C1=O [Compound 1703] ([NMeA]I[Sar][Aze][NMeCha][Sar][hPhe(3-Cl-4-CF3)][NMe3Pal][Ac5c][NMeChg][NMeD]-Morpholide; lactam N-11)	0.41
CC[C@H](C)[C@@H]1NC(=O)[C@H](C)N(C)C(=O)C[C@@H](C(=O)N2CCCC2)N(C)C(=O)[C@H](C(C)C)N(C)C(=O)C2(CCCC2)NC(=O)[C@@H]2CCCN2C(=O)[C@H](CCc2ccc(C(F)(F)F)c(Cl)c2)NC(=O)[C@@H](C)N(C)C(=O)[C@H](CC2CCCCC2)N(C)C(=O)[C@@H]2CCCN2C(=O)CN(C)C1=O [Compound 1715] ([NMeA]I[Sar]P[NMeCha][dNMeA][hPhe(3-Cl-4-CF3)]P[Ac5c][NMeV][NMeD]-Pyrrolidide; lactam N-11)	2.4
CCCCC[C@H]1C(=O)N(C)[C@H](C(=O)N2CCCCC2)CC(=O)N(C)[C@@H](CC(C)C)C(=O)N[C@@H]([C@@H](C)CC)C(=O)N(C)CC(=O)N(C)CC(=O)N(C)[C@@H](CC2CCCCC2)C(=O)N(C)CC(=O)N[C@@H](CCc2ccc(C(F)(F)F)c(Cl)c2)C(=O)N2CCC[C@H]2C(=O)NC2(CCCC2)C(=O)N1C [Compound 1719] ([NMeL]I[Sar][Sar][NMeCha][Sar][hPhe(3-Cl-4-CF3)]P[Ac5c][NMeAhp(2)][NMeD]-Piperidide; lactam N-11)	18
CCCC[C@@H]1NC(=O)[C@H](CC(C)C)N(C)C(=O)C[C@@H](C(=O)N2CCCCC2)N(C)C(=O)[C@H](C2CCCCC2)N(C)C(=O)C2(CCCC2)NC(=O)[C@@H]2CCCN2C(=O)[C@H](CCc2ccc(C(F)(F)F)c(Cl)c2)NC(=O)CN(C)C(=O)[C@H](CC2CCCCC2)N(C)C(=O)CN(C)C(=O)CN(C)C1=O [Compound 1723] ([NMeL][Nle][Sar][Sar][NMeCha][Sar][hPhe(3-Cl-4-CF3)]P[Ac5c][NMeChg][NMeD]-Piperidide; lactam N-11)	3.6
CC[C@H](C)[C@@H]1NC(=O)[C@H](C)N(C)C(=O)C[C@@H](C(=O)N2CCCCC2)N(C)C(=O)[C@H](C(C)C)N(C)C(=O)C2(CCCC2)NC(=O)[C@@H]2CCCN2C(=O)[C@H](CCc2ccc(C(F)(F)F)c(Cl)c2)NC(=O)[C@H]2CCCN2C(=O)[C@H](Cc2ccc(F)cc2)N(C)C(=O)[C@@H]2CCCN2C(=O)CN(C)C1=O [Compound 1725] ([NMeA]I[Sar]P[NMePhe(4-F)][dP][hPhe(3-Cl-4-CF3)]P[Ac5c][NMeV][NMeD]-Piperidide; lactam N-11)	23
CC[C@H](C)[C@@H]1NC(=O)[C@H](C)N(C)C(=O)C[C@@H](C)NC(=O)[C@H](C(C)C)N(C)C(=O)C2(CCCC2)NC(=O)[C@@H]2CCCN2C(=O)[C@H](CCc2ccc(C(F)(F)F)c(Cl)c2)NC(=O)[C@H]2CCCN2C(=O)[C@H](Cc2ccccc2)N(C)C(=O)[C@@H]2CCCN2C(=O)CN(C)C1=O [Compound 1730] (cyclo([Ac5c][NMeV][d(β3hA)][NMeA]I[Sar]P[NMeF][dP][hPhe(3-Cl-4-CF3)]P))	35
CC[C@H](C)[C@@H]1NC(=O)[C@H](C)N(C)C(=O)C[C@@H](C)NC(=O)[C@H](C(C)C)N(C)C(=O)C2(CCCC2)NC(=O)[C@@H]2CCCN2C(=O)[C@H](CCc2ccc(C(F)(F)F)c(Cl)c2)NC(=O)CN(C)C(=O)[C@H](Cc2ccc(F)cc2)N(C)C(=O)[C@@H]2CCCN2C(=O)CN(C)C1=O [Compound 1732] (cyclo([Ac5c][NMeV][d(β3hA)][NMeA]I[Sar]P[NMePhe(4-F)][Sar][hPhe(3-Cl-4-CF3)]P))	5.5
CC[C@H](C)[C@@H]1NC(=O)[C@H](CC(C)C)N(C)C(=O)C[C@H](C(=O)N2CCCC2)N(C)C(=O)[C@H]([C@@H](C)CC)N(C)C(=O)C2(CCCC2)NC(=O)[C@@H]2CCCN2C(=O)[C@H](CCc2ccc(C(F)(F)F)c(Cl)c2)NC(=O)CN(C)C(=O)[C@H](Cc2ccc(C(F)(F)F)cc2)N(C)C(=O)[C@@H]2CCN2C(=O)[C@H](C)N(C)C1=O [Compound 1734] ([NMeL]I[NMeA][Aze][NMePhe(4-CF3)][Sar][hPhe(3-Cl-4-CF3)]P[Ac5c][NMeI][dNMeD]-Pyrrolidide; lactam N-11)	71
CCCOC[C@@H]1NC(=O)[C@H](CC(C)C)N(C)C(=O)C[C@@H](C(=O)N2CCCCC2)N(C)C(=O)[C@H](C2CCCCC2)N(C)C(=O)C2(CCCC2)NC(=O)[C@@H]2CCCN2C(=O)[C@H](CCc2ccc(C(F)(F)F)c(Cl)c2)NC(=O)CN(C)C(=O)[C@H](CC2CCCCC2)N(C)C(=O)CN(C)C(=O)CN(C)C1=O [Compound 1736] ([NMeL]S(Propyl)[Sar][Sar][NMeCha][Sar][hPhe(3-Cl-4-CF3)]P[Ac5c][NMeChg][NMeD]-Piperidide; lactam N-11)	4.3
CC[C@H](C)[C@@H]1NC(=O)[C@H](CC(C)C)N(C)C(=O)C[C@@H](C(=O)N2CCCCC2)N(C)C(=O)[C@H](CC)N(C)C(=O)C2(CCCC2)NC(=O)[C@@H]2CCCN2C(=O)[C@H](CCc2ccc(C(F)(F)F)c(Cl)c2)NC(=O)CN(C)C(=O)[C@H](CC2CCCCC2)N(C)C(=O)CN(C)C(=O)CN(C)C1=O [Compound 1741] ([NMeL]I[Sar][Sar][NMeCha][Sar][hPhe(3-Cl-4-CF3)]P[Ac5c][NMeAbu][NMeD]-Piperidide; lactam N-11)	3.8
CC[C@H](C)[C@@H]1NC(=O)[C@H](CC(C)C)N(C)C(=O)C[C@@H](C(=O)N2CCCCC2)N(C)C(=O)[C@H](C2CCCCC2)N(C)C(=O)C2(CCCC2)NC(=O)[C@@H]2CCCN2C(=O)[C@H](CCc2ccc(C(F)(F)F)c(Cl)c2)NC(=O)CN(C)C(=O)[C@H](CC)N(C)C(=O)CN(C)C(=O)CN(C)C1=O [Compound 1743] ([NMeL]I[Sar][Sar][NMeAbu][Sar][hPhe(3-Cl-4-CF3)]P[Ac5c][NMeChg][NMeD]-Piperidide; lactam N-11)	1.3
CC[C@H](C)[C@@H]1NC(=O)[C@H](C)N(C)C(=O)C[C@@H](C(=O)N2CCCCC2)N(C)C(=O)[C@H](C(C)C)N(C)C(=O)C2(CCCC2)NC(=O)[C@@H]2CCCN2C(=O)[C@H](CCc2ccc(C(F)(F)F)c(Cl)c2)NC(=O)CN(C)C(=O)[C@H](Cc2ccccc2)N(C)C(=O)[C@@H]2CCCN2C(=O)CN(C)C1=O [Compound 1753] ([NMeA]I[Sar]P[NMeF][Sar][hPhe(3-Cl-4-CF3)]P[Ac5c][NMeV][NMeD]-Piperidide; lactam N-11)	2.5
CC(C)C[C@@H]1NC(=O)[C@H](CC(C)C)N(C)C(=O)C[C@@H](C(=O)N2CCCCC2)N(C)C(=O)[C@H](C(C)C)N(C)C(=O)C2(CCCC2)NC(=O)[C@@H]2CCCN2C(=O)[C@H](CCc2ccc(C(F)(F)F)c(Cl)c2)NC(=O)CN(C)C(=O)[C@H](CC2CCCCC2)N(C)C(=O)[C@@H]2CCN2C(=O)[C@H](C)N(C)C1=O [Compound 1754] ([NMeL]L[NMeA][Aze][NMeCha][Sar][hPhe(3-Cl-4-CF3)]P[Ac5c][NMeV][NMeD]-Piperidide; lactam N-11)	67
CC[C@H](C)[C@@H]1NC(=O)[C@H](C)N(C)C(=O)C[C@@H](C(=O)N2CCCCC2)N(C)C(=O)[C@H](C(C)C)N(C)C(=O)C2(CCCC2)NC(=O)[C@@H]2CCCN2C(=O)[C@H](CCc2ccc(C(F)(F)F)c(Cl)c2)NC(=O)[C@@H](C)N(C)C(=O)[C@H](Cc2ccc(F)cc2)N(C)C(=O)CN(C)C(=O)CN(C)C1=O [Compound 1755] ([NMeA]I[Sar][Sar][NMePhe(4-F)][dNMeA][hPhe(3-Cl-4-CF3)]P[Ac5c][NMeV][NMeD]-Piperidide; lactam N-11)	7.9
CC[C@H](C)[C@@H]1NC(=O)[C@H](CC(C)C)N(C)C(=O)C[C@@H](C(=O)N(C)C)N(C)C(=O)[C@H](C2CCCC2)N(C)C(=O)C2(CCCC2)NC(=O)[C@@H]2CCCN2C(=O)[C@H](CCc2ccc(C(F)(F)F)c(Cl)c2)NC(=O)CN(C)C(=O)[C@H](Cc2ccc(C)cc2)N(C)C(=O)[C@@H]2CCN2C(=O)[C@H](C)N(C)C1=O [Compound 1756] ([NMeL]I[NMeA][Aze][NMePhe(4-Me)][Sar][hPhe(3-Cl-4-CF3)]P[Ac5c][NMeGly(cPent)][NMeD]-NMe2; lactam N-11)	0.54
CC(C)C[C@H]1C(=O)N[C@@H](CC2CCC2)C(=O)N(C)CC(=O)N(C)CC(=O)N(C)[C@@H](CC2CCCCC2)C(=O)N(C)CC(=O)N[C@@H](CCc2ccc(C(F)(F)F)c(Cl)c2)C(=O)N2CCC[C@H]2C(=O)NC2(CCCC2)C(=O)N(C)[C@@H](C2CCCCC2)C(=O)N(C)[C@H](C(=O)N2CCCCC2)CC(=O)N1C [Compound 1759] ([NMeL][Cba][Sar][Sar][NMeCha][Sar][hPhe(3-Cl-4-CF3)]P[Ac5c][NMeChg][NMeD]-Piperidide; lactam N-11)	2.7

— patent US12371454B2, “Cyclic peptide compound having Kras inhibitory action” (priority 2019, dated 2025)
